Assay results: patent publication US20140363383A1, “AEROSOL FORMULATION FOR COPD” (Chiesi Farmaceutici S.p.A, priority 2009, published 2014)

Test: Compatibility with other active ingredients, especially formoterol
Type: physicochemical
Conditions: versus glycopyrronium bromide

## C[N+]1(C)CCC(OC(=O)C(O)(c2ccccc2)C2CCCC2)C1.[Cl-] (stereo not shown) [glycopyrronium chloride, 3-[(cyclopentylhydroxyphenylacetyl)oxy]-1,1-dimethylpyrrolidinium chloride]
  compatibility with other active ingredients: better compatibility with other active ingredients
